Results reported in US20210221848A1, “POLYMYXIN DERIVATIVES AND THEIR USE IN COMBINATION THERAPY TOGETHER WITH DIFFERENT ANTIBIOTICS” (priority 2014, published 2021).

Experiments:
[1] = system: E. coli strains with elevated MICs to Polymyxin B; assay: MIC against strains with elevated MICs to Polymyxin B; assay type: cell-based, Escherichia coli; details: Table 6D; for MIC E. coli 058: strain 058, elevated MIC to Polymyxin B; for MIC E. coli 059: strain 059, elevated MIC to Polymyxin B; for MIC E. coli 060: strain 060, elevated MIC to Polymyxin B; for MIC E. coli 061: strain 061, elevated MIC to Polymyxin B
Method in brief: (§1)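 Polymyxin B-resistant isolates were inoculated from 0.5 McFarland suspensions of 18-24 hour Mueller-Hinton agar colonies. Testing was done twice per compound, and results disagreeing by over 2-fold were discarded as non-valid. For compounds assayed several times, the modal MIC is given.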

[2] = system: K. pneumoniae strains with elevated MICs to Polymyxin B; assay: as above; assay type: cell-based, Klebsiella pneumoniae; details: Table 6D; for MIC K. pneumoniae 062: strain 062, elevated MIC to Polymyxin B; for MIC K. pneumoniae 063: strain 063, elevated MIC to Polymyxin B; for MIC K. pneumoniae 064: strain 064, elevated MIC to Polymyxin B; for MIC K. pneumoniae 655: strain 655, elevated MIC to Polymyxin B
Method in brief: as §1

[3] = system: P. aeruginosa strains with elevated MICs to Polymyxin B; assay: as above; assay type: cell-based, Pseudomonas aeruginosa; details: Table 6D; for MIC P. aeruginosa 065: strain 065, elevated MIC to Polymyxin B; for MIC P. aeruginosa 066: strain 066, elevated MIC to Polymyxin B; for MIC P. aeruginosa 067: strain 067, elevated MIC to Polymyxin B
Method in brief: as §1

[4] = system: A. baumanii strains with elevated MICs to Polymyxin B; assay: as above; assay type: cell-based, Acinetobacter baumannii; details: Table 6D; for MIC A. baumannii 053: strain 053, elevated MIC to Polymyxin B; for MIC A. baumannii 068: strain 068, elevated MIC to Polymyxin B; for MIC A. baumannii 070: strain 070, elevated MIC to Polymyxin B; for MIC A. baumannii 056: strain 056, elevated MIC to Polymyxin B
Method in brief: as §1

E. coli = details: sole activity, Table 6C
K. pneumoniae = details: sole activity, Table 6C
P. aeruginosa = details: sole activity, Table 6C
A. baumannii = details: sole activity, Table 6C

| Substance | MIC E. coli 058 [1] | MIC E. coli 059 [1] | MIC E. coli 060 [1] | MIC E. coli 061 [1] | MIC K. pneumoniae 062 [2] | MIC K. pneumoniae 063 [2] | MIC K. pneumoniae 064 [2] | MIC K. pneumoniae 655 [2] | MIC P. aeruginosa 065 [3] | MIC P. aeruginosa 066 [3] | MIC P. aeruginosa 067 [3] | MIC A. baumannii 053 [4] | MIC A. baumannii 068 [4] | MIC A. baumannii 070 [4] | MIC, E. coli ATCC 25922 (E. coli) | MIC, K. pneumoniae ATCC 4352 (K. pneumoniae) | MIC, P. aeruginosa ATCC 27853 (P. aeruginosa) | MIC, P. aeruginosa CCUG 59347 (P. aeruginosa) | MIC, A. baumannii ATCC BAA-747 (A. baumannii) | MIC, A. baumannii NCTC 13424 (A. baumannii) | further results |
| --- | --- | --- | --- | --- | --- | --- | --- | --- | --- | --- | --- | --- | --- | --- | --- | --- | --- | --- | --- | --- | --- |
| (trans-5-(isobutyl- piperidine)-3- carbonyl L-Thr-L- Dap-polymyxin E heptapeptide [Example D77] | 2 micrograms/mL | 4 micrograms/mL | 1 micrograms/mL | 4 micrograms/mL | 32 micrograms/mL | 16 micrograms/mL | 4 micrograms/mL | 16 micrograms/mL | 4 micrograms/mL | 2 micrograms/mL | 128 micrograms/mL | 64 micrograms/mL | 4 micrograms/mL | 4 micrograms/mL | 0.06 micrograms/mL | 0.125 micrograms/mL | 0.5 micrograms/mL | 1 micrograms/mL | 0.06 micrograms/mL | 0.06 micrograms/mL | MIC, E. coli NCTC 13441 (E. coli): 0.06 micrograms/mL; MIC, K. pneumoniae ATCC BAA-2146 (K. pneumoniae): 0.125 micrograms/mL |
| (S)-4-amino-2- (((S)-6- methyloctyl)amino) butanoyl polymyxin B nonapeptide [Example D90] | 2 micrograms/mL | 2 micrograms/mL | 2 micrograms/mL | 8 micrograms/mL | 16 micrograms/mL | 32 micrograms/mL | 4 micrograms/mL | 16 micrograms/mL | 0.25 micrograms/mL | 8 micrograms/mL | 32 micrograms/mL | 32 micrograms/mL | 2 micrograms/mL | 2 micrograms/mL | 0.25 micrograms/mL | 0.25 micrograms/mL | 0.5 micrograms/mL | 0.25 micrograms/mL | 0.25 micrograms/mL | 0.25 micrograms/mL | MIC A. baumannii 056 [4]: 8 micrograms/mL |
| 5-(3- methylbutanamido) piperidine-3- carbonyl Polymyxin B nonapeptide [Example D64] | 64 micrograms/mL | 128 micrograms/mL | 64 micrograms/mL | 64 micrograms/mL | >256 micrograms/mL | >256 micrograms/mL | 128 micrograms/mL |  | 64 micrograms/mL | 64 micrograms/mL | >256 micrograms/mL | >256 micrograms/mL | 128 micrograms/mL | >256 micrograms/mL | 0.25 micrograms/mL | 0.25 micrograms/mL | 1 micrograms/mL | 1 micrograms/mL | 2 micrograms/mL | 2 micrograms/mL | MIC A. baumannii 056 [4]: 256 micrograms/mL; MIC, E. coli NCTC 13441 (E. coli): 0.25 micrograms/mL; MIC, K. pneumoniae ATCC BAA-2146 (K. pneumoniae): 0.25 micrograms/mL |
| 3-aminomethyl- undecanoyl L- Thr-L-Dap- polymyxin B heptapeptide [Example D91] | 1 micrograms/mL | 0.5 micrograms/mL | 2 micrograms/mL | 4 micrograms/mL | 8 micrograms/mL | 16 micrograms/mL | 4 micrograms/mL | 8 micrograms/mL |  | 2 micrograms/mL | 16 micrograms/mL | 8 micrograms/mL | 2 micrograms/mL | 1 micrograms/mL | 0.5 micrograms/mL | 0.25 micrograms/mL | 0.5 micrograms/mL | 0.5 micrograms/mL | 0.25 micrograms/mL | 0.5 micrograms/mL | MIC A. baumannii 056 [4]: 2 micrograms/mL |
| (S)-3-amino-2- ((2- trifluoromethylben- zyl)amino)propa- noyl L-Thr-L- Dap-polymyxin B heptapeptide [Example D76] | 4 micrograms/mL | 6 micrograms/mL | 2 micrograms/mL | 8 micrograms/mL | 64 micrograms/mL | 16 micrograms/mL | 2 micrograms/mL | 16 micrograms/mL | 2 micrograms/mL | 2 micrograms/mL | 64 micrograms/mL | 64 micrograms/mL | 8 micrograms/mL | 16 micrograms/mL | 0.125 micrograms/mL | 0.06 micrograms/mL | 0.25 micrograms/mL | 0.25 micrograms/mL | 0.06 micrograms/mL | 0.25 micrograms/mL | MIC A. baumannii 056 [4]: 16 micrograms/mL; MIC, E. coli NCTC 13441 (E. coli): 0.25 micrograms/mL; MIC, K. pneumoniae ATCC BAA-2146 (K. pneumoniae): 0.125 micrograms/mL |
| 4-(isobutyl- piperidine)-3- carbonyl L-Thr-L- Dap-polymyxin B heptapeptide [Example D83] | 4 micrograms/mL | 8 micrograms/mL | 2 micrograms/mL | 8 micrograms/mL | 32 micrograms/mL | 16 micrograms/mL | 2 micrograms/mL | 16 micrograms/mL | 2 micrograms/mL | 2 micrograms/mL | 32 micrograms/mL | >64 micrograms/mL | 8 micrograms/mL | 16 micrograms/mL | 0.125 micrograms/mL | 0.06 micrograms/mL | 0.25 micrograms/mL | 0.5 micrograms/mL | 0.06 micrograms/mL | 0.125 micrograms/mL | MIC A. baumannii 056 [4]: 32 micrograms/mL; MIC, E. coli NCTC 13441 (E. coli): 0.06 micrograms/mL |
